Test systems include SK-MEL-5 melanoma; T-47D breast; PC-3 prostate; SNB-19 CNS; MCF7 breast; NCI/ADR-RES ovarian; DU-145 prostate; SN12C renal; HS 578T breast; MOLT-4 leukemia; SR leukemia; MDA-N; MDA-MB-435; RXF 393 renal; U251 CNS; DMS 273 small cell lung; XF 498 CNS; KM20L2 colon; EKVX NSCLC; M19-MEL melanoma.
Common to all, as to experiment: DTP human tumour cell line panel, 48 h

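Tested at 5 concentrations; 48 h exposure; 96-well plates; endpoints linearly interpolated, else capped at highest concentration. TGI is the concentration that stops growth completely.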 Some results are limits rather than exact numbers.

On to `COC(=O)[C@@H]1C=C[C@H](NC(C)=O)C1`, for which the TGI in the test on SK-MEL-5 melanoma, in the test with T-47D breast, with PC-3 prostate, in the test with SNB-19 CNS, with MCF7 breast and in the test with NCI/ADR-RES ovarian was greater than 100 µM throughout. Moreover, the TGI with DU-145 prostate, in the test on SN12C renal, with HS 578T breast, with MOLT-4 leukemia, with SR leukemia and in the test with MDA-N was greater than 100 µM in each case. The TGI with MDA-MB-435, with RXF 393 renal and with U251 CNS was greater than 100 µM in each case.
For the molecule `Cn1c(=O)n(CC2CS2)c2ccccc21` (stereo not given), the TGI with SNB-19 CNS, in the test on SN12C renal, in the test on DMS 273 small cell lung, with XF 498 CNS, with KM20L2 colon and in the test on EKVX NSCLC was greater than 100 µM throughout. Besides, the TGI in the test with MOLT-4 leukemia, in the test on SR leukemia, with RXF 393 renal and in the test with M19-MEL melanoma was greater than 100 µM each time.
As for `CCN(CC)/[N+]([O-])=N/O`, the total growth inhibition concentration (TGI) with SK-MEL-5 melanoma, with SNB-19 CNS, with SN12C renal, in the test with DMS 273 small cell lung, in the test with XF 498 CNS and in the test with KM20L2 colon was greater than 100 µM throughout. The TGI with EKVX NSCLC, in the test on MOLT-4 leukemia, with SR leukemia, in the test on RXF 393 renal and with M19-MEL melanoma was greater than 100 µM throughout.
On to `CCN(CCCl)c1cccc(NC(=O)c2ccc(C(=O)Nc3cccc(CN(C)C)c3)cc2)c1`, for which the TGI (in general, the concentration at which net growth stops) was 0.662 µM in the test on T-47D breast; 1.02 µM in the test on PC-3 prostate; 0.887 µM in the test on SNB-19 CNS; 1.09 µM with MCF7 breast; greater than 100 µM in the test on NCI/ADR-RES ovarian; 12.2 µM in the test with DU-145 prostate. In addition, the TGI in the test on SN12C renal amounted to 2.44 µM; with HS 578T breast, 0.399 µM; with MOLT-4 leukemia it was 1.15 µM; in the test with SR leukemia, 27.3 µM; with MDA-N, 0.286 µM; with MDA-MB-435 it was 0.114 µM. Moreover, the TGI came out at 0.0298 µM with RXF 393 renal and 4.08 µM in the test with U251 CNS.

The values are drawn from PubChem BioAssay (NCI).
